Tests used:
p38α = p38α (Homo sapiens, UniProt Q16539); assay: p38 in-vitro HTRF enzyme assay; type: biochemical; conditions: IC50 value ranges
Outline: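 Activated recombinant human p38α with ATP and 100 nM GST-ATF2-Avitag, 1 h at RT in Tris pH 7.5/MgCl2 buffer; compound 10-point 3-fold series from about 1 μM final. HTRF 665/620 nm ratio; IC50 from 4-parameter fit, Ki via Cheng-Prusoff with experimental ATP Km.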

THP1 cells = assay: Lipopolysaccharide-activated THP1 cell TNF production assay; type: cell-based, human; conditions: Homo sapiens, THP-1; LPS-induced TNF-α production in THP1 cells
Outline: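 THP1 cells at 1E6/mL were stimulated with LPS (1 μg/mL prepared stock) alongside 3-fold serially diluted compound for 3 h at 37 °C. Secreted TNF-α was quantified by electrochemiluminescence sandwich immunoassay. Percent of DMSO control was fitted to a 4-parameter logistic equation.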

monocytes = assay: Lipopolysaccharide-activated monocyte TNF production assay (LPS induced TNF release); type: cell-based, human; conditions: Homo sapiens, Monocyte; LPS induced TNF release from monocytes; read-out: LPS induced TNFa
Outline: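 Adherent monocytes from human PBMCs were pretreated with compound 60 min, then stimulated with E. coli LPS (30 ng/mL stock added) for 4 h at 37 °C. Supernatant TNF-α measured by sandwich ELISA; concentration giving 50% TNF reduction derived by polynomial fit.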

Sequence of p38α (Q16539 whole entry): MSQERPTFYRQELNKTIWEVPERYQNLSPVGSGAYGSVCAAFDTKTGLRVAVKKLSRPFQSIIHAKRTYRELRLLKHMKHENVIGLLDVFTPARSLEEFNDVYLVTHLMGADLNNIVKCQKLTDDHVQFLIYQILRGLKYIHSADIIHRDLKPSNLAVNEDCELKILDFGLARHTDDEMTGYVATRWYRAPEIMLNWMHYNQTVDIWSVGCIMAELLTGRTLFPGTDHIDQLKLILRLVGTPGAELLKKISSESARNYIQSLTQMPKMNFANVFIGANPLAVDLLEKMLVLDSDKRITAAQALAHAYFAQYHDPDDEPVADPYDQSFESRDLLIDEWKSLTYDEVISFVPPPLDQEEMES

SMILES	IC50 (p38α)	IC50 (THP1 cells)	IC50 (monocytes)
Cc1ccc(C(=O)NC2CC2)cc1-c1ccn2c(-c3cccc(F)c3Cl)nnc2c1 [Example 39, 3-(3-(2-chloro-3-fluorophenyl)[1,2,4]triazolo[4,3-a]pyridin-7-yl)-N-cyclopropyl-4-methylbenzamide]	< 25 nM	25 to 100 nM	100 to 250 nM
Cc1ccc(C(=O)Nc2ccnn2C)cc1-c1ccn2c(-c3ccccc3Cl)nnc2c1 [Example 3, 3-(3-(2-chlorophenyl)[1,2,4]triazolo[4,3-a]pyridin-7-yl)-4-methyl-N-(1-methyl-1H-pyrazol-5-yl)benzamide]	< 25 nM	< 25 nM	< 25 nM
Cc1c(F)cc(C(=O)NC2CC2)cc1-c1ccn2c(C(C)(C)C)nnc2c1 [Example 50, N-cyclopropyl-3-(3-(1,1-dimethylethyl)[1,2,4]triazolo[4,3-a]pyridin-7-yl)-5-fluoro-4-methylbenzamide]	< 25 nM	< 25 nM	< 25 nM
Cc1ccc(C(=O)Nc2ccnn2C)cc1-c1ccn2c(-c3ccc(F)cc3C)nnc2c1 [Example 17, 3-(3-(4-fluoro-2-methylphenyl)[1,2,4]triazolo[4,3-a]pyridin-7-yl)-4-methyl-N-(1-methyl-1H-pyrazol-5-yl)benzamide]	< 25 nM	< 25 nM	< 25 nM
Cc1ccc(C(=O)Nc2ccnn2C)cc1-c1ccn2c(-c3cc(F)c(F)cc3Cl)nnc2c1 [Example 49, 3-(3-(2-chloro-4,5-difluorophenyl)[1,2,4]triazolo[4,3-a]pyridin-7-yl)-4-methyl-N-(1-methyl-1H-pyrazol-5-yl)benzamide]	< 25 nM	25 to 100 nM	25 to 100 nM
Cc1ccc(C(=O)NC2CC2)cc1-c1ccn2c(-c3c(C)cccc3Cl)nnc2c1 [Example 81, 3-(3-(2-chloro-6-methylphenyl)[1,2,4]triazolo[4,3-a]pyridin-7-yl)-N-cyclopropyl-4-methylbenzamide]	< 25 nM	< 25 nM	< 25 nM
Cc1ccc(C(=O)Nc2ccnn2C)cc1-c1ccn2c(-c3cccc(F)c3Cl)nnc2c1 [Example 41, 3-(3-(2-chloro-3-fluorophenyl)[1,2,4]triazolo[4,3-a]pyridin-7-yl)-4-methyl-N-(1-methyl-1H-pyrazol-5-yl)benzamide]	< 25 nM	< 25 nM	25 to 100 nM
Cc1ccc(C(=O)NC2CC2)cc1-c1ccn2c(-c3c(Cl)cccc3Cl)nnc2c1 [Example 62, N-cyclopropyl-3-(3-(2,6-dichlorophenyl)[1,2,4]triazolo[4,3-a]pyridin-7-yl)-4-methylbenzamide]	< 25 nM	< 25 nM	< 25 nM
Cc1ccc(C(=O)Nc2ccnn2C)cc1-c1ccn2c(-c3ccc(F)cc3C)ncc2c1 [Example 23, 3-(3-(4-fluoro-2-methylphenyl)imidazo[1,5-a]pyridin-7-yl)-4-methyl-N-(1-methyl-1H-pyrazol-5-yl)benzamide]	< 25 nM	< 25 nM	25 to 100 nM
Cc1ccc(C(=O)NC2CC2)cc1-c1ccn2c(-c3ccc(F)cc3C)ncc2c1 [Example 22, N-cyclopropyl-3-(3-(4-fluoro-2-methylphenyl)imidazo[1,5-a]pyridin-7-yl)-4-methylbenzamide]	< 25 nM	25 to 100 nM	25 to 100 nM
Cc1ccc(C(=O)Nc2ccnn2C)cc1-c1ccn2c(-c3ccc(S(C)(=O)=O)cc3)nnc2c1 [Example 14, 4-methyl-N-(1-methyl-1H-pyrazol-5-yl)-3-(3-(4-(methylsulfonyl)phenyl)[1,2,4]triazolo[4,3-a]pyridin-7-yl)benzamide]	25 to 100 nM	1000 to 5000 nM	1000 to 5000 nM
Cc1ccc(C(=O)NC2CC2)cc1-c1ccn2c(-c3ccncc3Cl)nnc2c1 [Example 80, 3-(3-(3-chloro-4-pyridinyl)[1,2,4]triazolo[4,3-a]pyridin-7-yl)-N-cyclopropyl-4-methylbenzamide]	< 25 nM	< 25 nM	25 to 100 nM

Reference: patent US7700593B2, “Imidazo- and triazolo-pyridine compounds and methods of use thereof” (Amgen Inc., priority 2006, dated 2010)
